The record followed here is patent US9663508B2, “Biaryl acyl-sulfonamide compounds as sodium channel inhibitors” (AMGEN INC., priority 2013, dated 2017).

In the test the target is human Nav1.7 (Homo sapiens (Human), UniProt Q15858). Description: Nav 1.7 in vitro PatchXpress (PX) assay. The class given is cell-based.
Sequence of human Nav1.7 (Q15858 whole entry): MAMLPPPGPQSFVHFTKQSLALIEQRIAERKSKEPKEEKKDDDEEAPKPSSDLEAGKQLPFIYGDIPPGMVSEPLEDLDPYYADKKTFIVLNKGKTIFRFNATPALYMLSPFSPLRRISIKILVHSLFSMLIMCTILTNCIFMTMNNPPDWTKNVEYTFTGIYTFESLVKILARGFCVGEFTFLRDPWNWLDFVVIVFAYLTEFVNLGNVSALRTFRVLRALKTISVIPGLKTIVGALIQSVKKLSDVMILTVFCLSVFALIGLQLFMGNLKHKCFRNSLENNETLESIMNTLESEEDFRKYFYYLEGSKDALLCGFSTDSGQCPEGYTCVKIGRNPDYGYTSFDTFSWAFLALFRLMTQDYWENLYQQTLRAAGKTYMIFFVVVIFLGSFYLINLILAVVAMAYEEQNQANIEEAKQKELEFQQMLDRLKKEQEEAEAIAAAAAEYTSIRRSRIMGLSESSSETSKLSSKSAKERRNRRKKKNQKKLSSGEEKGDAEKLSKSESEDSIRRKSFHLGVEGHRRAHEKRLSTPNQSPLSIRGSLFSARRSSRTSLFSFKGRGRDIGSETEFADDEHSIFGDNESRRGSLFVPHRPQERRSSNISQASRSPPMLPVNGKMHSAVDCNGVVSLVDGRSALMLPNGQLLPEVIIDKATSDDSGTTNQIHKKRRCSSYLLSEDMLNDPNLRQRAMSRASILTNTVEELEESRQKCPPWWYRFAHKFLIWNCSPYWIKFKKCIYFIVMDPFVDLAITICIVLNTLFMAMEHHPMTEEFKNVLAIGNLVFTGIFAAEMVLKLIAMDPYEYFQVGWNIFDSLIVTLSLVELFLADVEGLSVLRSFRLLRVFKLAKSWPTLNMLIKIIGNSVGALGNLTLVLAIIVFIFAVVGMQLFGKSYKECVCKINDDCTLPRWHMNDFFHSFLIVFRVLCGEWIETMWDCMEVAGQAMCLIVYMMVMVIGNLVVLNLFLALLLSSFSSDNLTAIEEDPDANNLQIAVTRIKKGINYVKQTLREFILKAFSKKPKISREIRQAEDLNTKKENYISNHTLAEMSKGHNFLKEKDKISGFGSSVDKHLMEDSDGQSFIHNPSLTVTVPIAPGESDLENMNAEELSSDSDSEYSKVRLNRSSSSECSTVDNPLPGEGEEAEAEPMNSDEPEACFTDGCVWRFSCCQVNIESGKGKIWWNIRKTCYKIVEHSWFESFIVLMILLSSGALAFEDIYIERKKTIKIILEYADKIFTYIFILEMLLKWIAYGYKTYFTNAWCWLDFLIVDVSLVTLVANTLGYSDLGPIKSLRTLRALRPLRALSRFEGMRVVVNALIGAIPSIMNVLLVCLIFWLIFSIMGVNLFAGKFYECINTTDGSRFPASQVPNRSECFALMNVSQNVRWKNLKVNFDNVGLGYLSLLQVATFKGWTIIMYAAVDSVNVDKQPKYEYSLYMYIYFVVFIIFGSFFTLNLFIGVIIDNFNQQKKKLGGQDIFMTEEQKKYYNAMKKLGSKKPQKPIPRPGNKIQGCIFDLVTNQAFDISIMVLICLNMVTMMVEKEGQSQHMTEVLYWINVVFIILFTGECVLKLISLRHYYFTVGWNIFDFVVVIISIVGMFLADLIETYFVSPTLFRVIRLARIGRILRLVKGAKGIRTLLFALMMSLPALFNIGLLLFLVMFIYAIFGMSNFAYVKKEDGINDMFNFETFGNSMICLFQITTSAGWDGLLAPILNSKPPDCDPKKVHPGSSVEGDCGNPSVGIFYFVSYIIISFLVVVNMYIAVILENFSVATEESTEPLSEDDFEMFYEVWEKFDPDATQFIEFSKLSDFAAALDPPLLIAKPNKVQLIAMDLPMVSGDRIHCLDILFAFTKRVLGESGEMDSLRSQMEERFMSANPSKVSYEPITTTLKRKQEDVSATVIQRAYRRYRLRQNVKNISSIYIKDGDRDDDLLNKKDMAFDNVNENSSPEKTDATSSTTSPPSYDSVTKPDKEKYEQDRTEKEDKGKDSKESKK
Description: HEK 293 cells stably transfected with human Nav1.7 were recorded in whole cell voltage clamp mode with the PatchXpress automated electrophysiology system (Molecular Devices, LLC, Sunnyvale, Calif.). Compound effects were measured on a partially inactivated state of the sodium channel. Cells were clamped to a holding potential yielding 20 to 50% inactivation. To elicit sodium current, channels were activated by pulsing to −10 mV for 20 msec. This voltage protocol was repeated at a rate of 0.1 Hz throughout the experiment. A single concentration of test compound was applied to cells for a duration of 3 minutes. Peak sodium current was measured at the end of the compound addition period to determine percent inhibition. Three to five cells were tested per concentration, and IC50 curves were fitted to percent inhibition as a function of concentration.
Consider `COc1cc(C(=O)NS(C)(=O)=O)ccc1-c1cnc(Oc2cc(Cl)cc(Cl)c2)c(C(F)F)c1` [Example 382, 4-(6-(3,5-dichlorophenoxy)-5-(difluoromethyl)-3-pyridinyl)-3-methoxy-N-(methylsulfonyl)benzamide], for which the IC50 amounted to 0.054 µM.
The same measure for `COc1cc(C(=O)NS(C)(=O)=O)ccc1-c1cnc(Oc2cccc(F)c2F)c(Cl)c1` [Example 402, 4-(5-chloro-6-(2,3-difluorophenoxy)-3-pyridinyl)-3-methoxy-N-(methylsulfonyl)benzamide]: 0.08 µM; for `COc1ncc(Oc2ncc(-c3ccc(C(=O)NS(C)(=O)=O)cc3OC3COC3)cc2Cl)cc1Cl` [Example 412, 4-(5-chloro-6-((5-chloro-6-methoxy-3-pyridinyl)oxy)-3-pyridinyl)-N-(methylsulfonyl)-3-(3-oxetanyloxy)benzamide]: 0.0989 µM; for `Cc1cc(Oc2ncc(-c3ccc(C(=O)NS(C)(=O)=O)cc3OC3COC3)cc2Cl)ccc1Cl` [Example 413, 4-(5-chloro-6-(4-chloro-3-methylphenoxy)-3-pyridinyl)-N-(methylsulfonyl)-3-(3-oxetanyloxy)benzamide]: 0.0461 µM.
In turn, `CS(=O)(=O)NC(=O)c1ccc(-c2cnc(Oc3cccc4ccccc34)c(Cl)c2)c(OC2COC2)c1` [Example 419, 4-(5-chloro-6-(1-naphthalenyloxy)-3-pyridinyl)-N-(methylsulfonyl)-3-(3-oxetanyloxy)benzamide] returned an IC50 of 0.098 µM.
Next, `CS(=O)(=O)NC(=O)c1ccc(-c2cnc(Oc3cc(Cl)cc(Cl)c3)c(Cl)c2)c(OC2COC2)c1` [Example 422, 4-(5-chloro-6-(3,5-dichlorophenoxy)-3-pyridinyl)-N-(methylsulfonyl)-3-(3-oxetanyloxy)benzamide]: 0.0313 µM; `Cc1ccc(Cl)c(Oc2ncc(-c3ccc(C(=O)NS(C)(=O)=O)cc3OC3COC3)cc2Cl)c1` [Example 423, 4-(5-chloro-6-(2-chloro-5-methylphenoxy)-3-pyridinyl)-N-(methylsulfonyl)-3-(3-oxetanyloxy)benzamide]: 0.0386 µM.
Next, `CS(=O)(=O)NC(=O)c1ccc(-c2cnc(Oc3ccc4ccccc4c3)c(Cl)c2)c(OC2COC2)c1` [Example 424, 4-(5-chloro-6-(2-naphthalenyloxy)-3-pyridinyl)-N-(methylsulfonyl)-3-(3-oxetanyloxy)benzamide]: 0.0994 µM.
The compound `Cc1ccc(Oc2ncc(-c3ccc(C(=O)NS(C)(=O)=O)cc3OC3COC3)cc2Cl)cc1Cl` [Example 425, 4-(5-chloro-6-(3-chloro-4-methylphenoxy)-3-pyridinyl)-N-(methylsulfonyl)-3-(3-oxetanyloxy)benzamide] gave a concentration for half-maximal inhibition (IC50) of 0.0322 µM.
Next, `Cc1cccc(Cl)c1Oc1ncc(-c2ccc(C(=O)NS(C)(=O)=O)cc2OC2COC2)cc1Cl` [Example 426, 4-(5-chloro-6-(2-chloro-6-methylphenoxy)-3-pyridinyl)-N-(methylsulfonyl)-3-(3-oxetanyloxy)benzamide]: 0.075 µM.
`COc1ncc(Oc2ncc(-c3ccc(C(=O)NS(C)(=O)=O)cc3OC(F)F)cc2Cl)cc1Cl` [Example 436, 4-(5-chloro-6-((5-chloro-6-methoxy-3-pyridinyl)oxy)-3-pyridinyl)-3-(difluoromethoxy)-N-(methylsulfonyl)benzamide] had an IC50 of 0.0922 µM.
The compound `CS(=O)(=O)NC(=O)c1ccc(-c2cnc(Oc3ccc4ccccc4c3)c(Cl)c2)c(OC(F)F)c1` [Example 446, 4-(5-chloro-6-(2-naphthalenyloxy)-3-pyridinyl)-3-(difluoromethoxy)-N-(methylsulfonyl)benzamide] came in with a concentration for half-maximal inhibition (IC50) of 0.0748 µM.
The same measure for `Cc1ccc(Oc2ncc(-c3ccc(C(=O)NS(C)(=O)=O)cc3OC(F)F)cc2Cl)cc1Cl` [Example 449, 4-(5-chloro-6-(3-chloro-4-methylphenoxy)-3-pyridinyl)-3-(difluoromethoxy)-N-(methylsulfonyl)benzamide]: 0.0792 µM; for `CS(=O)(=O)NC(=O)c1ccc(-c2cnc(Oc3cccc4ccccc34)c(Cl)c2)c(OC(F)F)c1` [Example 452, 4-(5-chloro-6-(1-naphthalenyloxy)-3-pyridinyl)-3-(difluoromethoxy)-N-(methylsulfonyl)benzamide]: 0.0599 µM.
Next, `Cc1cc(Oc2ncc(-c3ccc(C(=O)NS(C)(=O)=O)cc3OC(F)F)cc2Cl)ccc1Cl` [Example 453, 4-(5-chloro-6-(4-chloro-3-methylphenoxy)-3-pyridinyl)-3-(difluoromethoxy)-N-(methylsulfonyl)benzamide]: 0.0603 µM.
In the case of `C[C@@H](Oc1ncc(-c2ccc(C(=O)NS(C)(=O)=O)cc2OC(F)F)cc1Cl)c1ccccc1` [Example 455, 4-(5-chloro-6-((1R)-1-phenylethoxy)-3-pyridinyl)-3-(difluoromethoxy)-N-(methylsulfonyl)benzamide], the IC50 was determined as 0.058 µM.
In turn, `CS(=O)(=O)NC(=O)c1ccc(-c2cnc(Oc3cccc(C(F)(F)F)c3)c(Cl)c2)c(OC(F)F)c1` [Example 456, 4-(5-chloro-6-(3-(trifluoromethyl)phenoxy)-3-pyridinyl)-3-(difluoromethoxy)-N-(methylsulfonyl)benzamide] yielded an IC50 of 0.064 µM.
`C[C@H](Oc1ncc(-c2ccc(C(=O)NS(C)(=O)=O)cc2OC(F)F)cc1Cl)c1ccccc1` [Example 457, 4-(5-chloro-6-((1S)-1-phenylethoxy)-3-pyridinyl)-3-(difluoromethoxy)-N-(methylsulfonyl)benzamide]: the 50% inhibitory concentration (IC50) turned out to be 0.08 µM.
The same measure for `Cc1ccc(Oc2ncc(-c3ccc(C(=O)NS(C)(=O)=O)cc3OC(F)F)cc2Cl)cc1C` [Example 459, 4-(5-chloro-6-(3,4-dimethylphenoxy)-3-pyridinyl)-3-(difluoromethoxy)-N-(methylsulfonyl)benzamide]: 0.095 µM.
Turning to `CS(=O)(=O)NC(=O)c1ccc(-c2cnc(Oc3cc(Cl)cc(Cl)c3)c(Cl)c2)c(OC(F)F)c1` [Example 461, 4-(5-chloro-6-(3,5-dichlorophenoxy)-3-pyridinyl)-3-(difluoromethoxy)-N-(methylsulfonyl)benzamide], the 50% inhibitory concentration (IC50) worked out at 0.0337 µM.
For the compound `Cc1ccc(Cl)c(Oc2ncc(-c3ccc(C(=O)NS(C)(=O)=O)cc3OC(F)F)cc2Cl)c1` [Example 462, 4-(5-chloro-6-(2-chloro-5-methylphenoxy)-3-pyridinyl)-3-(difluoromethoxy)-N-(methylsulfonyl)benzamide], the IC50 came out at 0.0683 µM.
`CS(=O)(=O)NC(=O)c1ccc(-c2cnc(Oc3ccccc3C(F)(F)F)c(Cl)c2)c(OC(F)F)c1` [Example 464, 4-(5-chloro-6-(2-(trifluoromethyl)phenoxy)-3-pyridinyl)-3-(difluoromethoxy)-N-(methylsulfonyl)benzamide] came in with an IC50 of 0.0924 µM.
The same measure for `Cc1ccc(Oc2ncc(-c3ccc(C(=O)NS(C)(=O)=O)cc3OC(F)F)cc2Cl)c(Cl)c1` [Example 465, 4-(5-chloro-6-(2-chloro-4-methylphenoxy)-3-pyridinyl)-3-(difluoromethoxy)-N-(methylsulfonyl)benzamide]: 0.0697 µM; for `CS(=O)(=O)NC(=O)c1ccc(-c2cnc(Oc3ccc(Cl)cc3)c(Cl)c2)c(OC(F)F)c1` [Example 466, 4-(5-chloro-6-(4-chlorophenoxy)-3-pyridinyl)-3-(difluoromethoxy)-N-(methylsulfonyl)benzamide]: 0.0688 µM.
The same measure for `CS(=O)(=O)NC(=O)c1ccc(-c2cnc(OCCc3ccccc3)c(Cl)c2)c(OC(F)F)c1` [Example 467, 4-(5-chloro-6-(2-phenylethoxy)-3-pyridinyl)-3-(difluoromethoxy)-N-(methylsulfonyl)benzamide]: 0.0788 µM; for `Cc1cccc(Cl)c1Oc1ncc(-c2ccc(C(=O)NS(C)(=O)=O)cc2OC(F)F)cc1Cl` [Example 468, 4-(5-chloro-6-(2-chloro-6-methylphenoxy)-3-pyridinyl)-3-(difluoromethoxy)-N-(methylsulfonyl)benzamide]: 0.0535 µM; for `COc1cc(C(=O)NS(C)(=O)=O)ccc1-c1cnc(OCCc2ccccc2)c(C#N)c1` [Example 539, 4-(5-cyano-6-(2-phenylethoxy)-3-pyridinyl)-3-methoxy-N-(methylsulfonyl)benzamide]: 0.0942 µM.
The same measure for `COc1cc(C(=O)NS(C)(=O)=O)ccc1-c1cnc(Oc2ccc(C)c(Cl)c2)c(C#N)c1` [Example 549, 4-(6-(3-chloro-4-methylphenoxy)-5-cyano-3-pyridinyl)-3-methoxy-N-(methylsulfonyl)benzamide]: 0.0505 µM; for `CS(=O)(=O)NC(=O)c1cc(F)c(-c2cnc(Oc3c(Cl)cc(Cl)cc3Cl)c(Cl)c2)cc1F` [Example 568, 4-(5-chloro-6-(2,4,6-trichlorophenoxy)-3-pyridinyl)-2,5-difluoro-N-(methylsulfonyl)benzamide]: 0.0485 µM.
`Cc1ccc(Oc2ncc(-c3cc(F)c(C(=O)NS(C)(=O)=O)cc3F)cc2Cl)c(F)c1F` [Example 569, 4-(5-chloro-6-(2,3-difluoro-4-methylphenoxy)-3-pyridinyl)-2,5-difluoro-N-(methylsulfonyl)benzamide] registered an IC50 of 0.06 µM.
The same measure for `CS(=O)(=O)NC(=O)c1cc(F)c(-c2cnc(Oc3ccc(Cl)c(Cl)c3)c(Cl)c2)cc1F` [Example 570, 4-(5-chloro-6-(3,4-dichlorophenoxy)-3-pyridinyl)-2,5-difluoro-N-(methylsulfonyl)benzamide]: 0.0612 µM; for `Cc1ccc(Cl)cc1Oc1ncc(-c2cc(F)c(C(=O)NS(C)(=O)=O)cc2F)cc1Cl` [Example 571, 4-(5-chloro-6-(5-chloro-2-methylphenoxy)-3-pyridinyl)-2,5-difluoro-N-(methylsulfonyl)benzamide]: 0.0992 µM; for `CS(=O)(=O)NC(=O)c1cc(F)c(-c2cnc(Oc3c(Cl)cc(F)cc3Cl)c(Cl)c2)cc1F` [Example 572, 4-(5-chloro-6-(2,6-dichloro-4-fluorophenoxy)-3-pyridinyl)-2,5-difluoro-N-(methylsulfonyl)benzamide]: 0.0576 µM.
Turning to `C[C@@H](Oc1ncc(-c2cc(F)c(C(=O)NS(C)(=O)=O)cc2F)cc1Cl)c1ccc(F)cc1F` [Example 574, 4-(5-chloro-6-((1R)-1-(2,4-difluorophenyl)ethoxy)-3-pyridinyl)-2,5-difluoro-N-(methylsulfonyl)benzamide], the IC50 was determined as 0.0888 µM.
